Measurements taken from US20260297105A1, “RAF-MEK PROTEIN COMPLEX MODULATORS AND METHODS OF USE THEREOF” (GANDEEVA THERAPEUTICS, INC., priority 2023, published 2026).
Like-named read-outs stand apart in the source and are kept apart here.

Experiments:
NCI-H292 cells = test: Cell viability assay (CellTiter-Glo), NCI-H292; format: cell-based; conditions: Homo sapiens, 72 hrs, read-out: Cell Viability Assay: IC50 Determination NCI-H292
Procedure: Cell culture: HCTI 16, HT-29, and NCI-H292 cells were acquired from American Type Culture Collection (ATCC). HCT116 and HT-29 cells were maintained in ATCC-formulated McCoy's 5a Medium Modified supplemented with 10% fetal bovine serum, NCI-H292 cells were cultured in ATCC formulated RPMI-1640 supplemented with 10% fetal bovine serum. All cells were maintained at 37° C., 5% CO2.
Efficacy of exemplary compounds in inhibition of cell viability: HCT116 and HT-29 cells were plated at 4,000 cells per well and NCI-H292 cells were plated at 2,000 cells per well in their respective media in 384-well white, TC-treated plates (Corning). After 24 hours of incubation, the cells were treated with vehicle (DMSO) or test compounds (0.1% DMSO in final volume) for 72 hrs. The plate was equilibrated at room temperature for 10 mins followed by addition of a 1:1 volume of CellTiter-Glo® reagent (Promega). The contents were mixed for 2 mins on an orbital shaker to induce lysis. The plate was incubated at room temperature for 10 mins to stabilize luminescent signal before measuring luminescence on a Cytation5 microplate reader (Agilent). % inhibition as a function of compound concentration from 3 replicate wells was fit with a 4-parameter logistic curve using GraphPad Prism or CDD Vault to derive IC50 values.
In this table, for the BRAF ADP Glo kinase assay, “A” indicates IC50 of less than 5 nM; “B” indicates IC50 of between 5 nM to 50 nM; and “C” indicates IC50 of between 50 nM to 500 nM. “D” indicates IC50 of greater than 500 nM. For the BRAF-MEK TR-FRET assay, “A” indicates EC50 of less than 50 nM; “B” indicates EC50 of between 50 nM to 200 nM; and “C” indicates EC50 of between 200 nM to 1 μM. “D′” indicates EC50 of greater than 1 μM. For the AlphaLisa P-ERK assay, “A” indicates IC50 of less than 1 nM; “B” indicates IC50 of between 1 nM to 10 nM; and “C” indicates IC50 of between 10 nM to 100 nM. “D” indicates IC50 of greater than 100 nM. For the cell viability assay, “A” indicates IC50 of less than 1 nM; “B” indicates IC50 of between 1 nM to 10 nM; and “C” indicates IC50 of between 10 nM to 100 nM. “D” indicates IC50 of greater than 100 nM.

MEK1 = biological target: T1, MEK1 (Homo sapiens, UniProt Q02750); test: MEK1 kinase cascade assay (ADP-Glo), inhibition of MEK1 kinase activity; format: biochemical; conditions: 25 nM BRAF, 6.25 nM MEK1, 0.5 μM ERK, 1 mM ATP; 20 min preincubation, 1 hr at 25° C.; read-out: BRAF ADP Glo kinase assay V3 (IC50)
T1 construct: purchased SignalChem M02-14H
T1 sequence (Q02750 whole entry): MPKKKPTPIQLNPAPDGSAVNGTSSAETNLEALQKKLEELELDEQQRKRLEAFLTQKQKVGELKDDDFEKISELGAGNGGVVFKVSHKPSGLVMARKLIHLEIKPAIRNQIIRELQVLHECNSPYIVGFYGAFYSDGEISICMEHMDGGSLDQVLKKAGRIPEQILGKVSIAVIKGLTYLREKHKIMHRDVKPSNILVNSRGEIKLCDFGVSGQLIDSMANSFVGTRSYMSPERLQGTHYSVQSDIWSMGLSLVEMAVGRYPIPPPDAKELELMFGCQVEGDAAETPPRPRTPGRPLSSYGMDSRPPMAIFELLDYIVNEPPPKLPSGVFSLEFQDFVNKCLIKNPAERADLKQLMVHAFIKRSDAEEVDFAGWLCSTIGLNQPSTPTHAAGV
T1 sequence (P15056 445-723 partner limits assumed): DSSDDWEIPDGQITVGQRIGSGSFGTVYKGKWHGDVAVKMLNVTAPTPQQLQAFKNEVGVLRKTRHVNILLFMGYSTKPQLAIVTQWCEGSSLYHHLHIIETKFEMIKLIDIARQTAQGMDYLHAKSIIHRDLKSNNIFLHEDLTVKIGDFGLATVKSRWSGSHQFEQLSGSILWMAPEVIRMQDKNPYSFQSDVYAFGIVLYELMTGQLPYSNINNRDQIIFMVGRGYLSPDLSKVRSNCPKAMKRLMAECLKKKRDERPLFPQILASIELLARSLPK
Method in brief: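 Compounds were preincubated 20 mins at 25° C with 25 nM BRAF(445-723) in 10 mM HEPES pH 7.5, 5 mM MgCl2, 2 mM CHAPS, 1 mM DTT, then 6.25 nM MEK1, 0.5 μM ERK1 and 1 mM ATP were added for 1 hr at 25° C, with 1% DMSO. ADP-Glo luminescence was normalized to DMSO and 1 μM Trametinib; IC50 came from 4-parameter fits of duplicates.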

BRAF-MEK1 = test: BRAF-MEK TR-FRET assay, stabilization of MEK1 and BRAF interaction; format: binding; conditions: 4 nM BRAF, 10 nM MEK, 100 μM ATP, 1 hr at 25° C., read-out: BRAF-MEK TR-FRET Assay (EC50, fold stabilization)
Method in brief: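 His-MEK1 (full-length, E. coli) at 10 nM with GST-BRAF at 4 nM, 1 h at 25° C in pH 7.5 Tris buffer with 5 mM MgCl2 and 100 μM ATP; anti-His-Tb/anti-GST-XL665 added for 1 h more. 665/620 FRET ratio over DMSO gives fold stabilization; EC50 from 4-parameter fit, duplicate wells.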

Which IC50 (NCI-H292 cells) does the source give for `CNS(=O)(=O)Nc1cccc(CN2C(=O)Oc3c(ccc(OC(=O)N(C)C)c3F)C23COC3)c1F` [Compound 77, 8-fluoro-3-({2-fluoro-3-(methylsulfamoyl)amino]phenyl}methyl)-2-oxo-2,3-dihydrospiro[1,3-benzoxazine-4,3′-oxetan]-7-yl N,N-dimethyl carbamate] here?
The IC50 was under 1 nM.

And the IC50 (MEK1)?
The IC50 was 5 to 50 nM.

What about the EC50 (BRAF-MEK1) of the same compound?
Its EC50 is 50 to 200 nM.

With `CNS(=O)(=O)Nc1cccc(CN2C(=O)Oc3cc(OC(=O)N(C)C)c(Cl)cc3[C@@H]2C)c1F` [Compound 108, (S)-6-chloro-7-(dimethylaminocarbonyloxy)-3-{[2-fluoro-3-(methylaminosulfonylamino)phenyl]methyl}-4-methyl-3,4-dihydro-2H-1,3-benzoxazin-2-one] as the compound, how does the IC50 (NCI-H292 cells) read?
The IC50 was under 1 nM.

And the IC50 (MEK1)?
The IC50 was 5 to 50 nM.

And the EC50 (BRAF-MEK1)?
The EC50 was 50 to 200 nM.

How did the IC50 (NCI-H292 cells) turn out when `CN(C)C(=O)Oc1cc(F)c2c(c1)OC(=O)N(Cc1cccc(NS(=O)(=O)C3CC3)c1F)C2` [Compound 102, 3-(3-(cyclopropanesulfonamido)-2-fluorobenzyl)-5-fluoro-2-oxo-3,4-dihydro-2H-benzo[e][1,3]oxazin-7-yl dimethylcarbamate] was run?
The IC50 was 1 to 10 nM.

And the IC50 (MEK1)?
The IC50 was 5 to 50 nM.

And the EC50 (BRAF-MEK1)?
The EC50 was 50 to 200 nM.

`CNS(=O)(=O)Nc1cccc(CN2C(=O)Oc3cc(Oc4ncco4)ccc3[C@H]2C)c1F` (single isomer, unassigned) [Compound 79, (R)-3-({2-fluoro-3-(methylsulfamoyl)amino]phenyl}methyl)-4-methyl-7-(1,3-oxazol-2-yloxy)-3,4-dihydro-2H-1,3-benzoxazin-2-one or (S)-3-({2-fluoro-3-(methylsulfamoyl)amino]phenyl}methyl)-4-methyl-7-(1,3-oxazol-2-yloxy)-3,4-dihydro-2H-1,3-benzoxazin-2-one] was tested. Which IC50 (NCI-H292 cells) did it give?
The IC50 was 10 to 100 nM.

And the IC50 (MEK1)?
Its IC50 is 5 to 50 nM.

Which IC50 (NCI-H292 cells) does the source give for `CNS(=O)(=O)Nc1cccc(CN2C(=O)Oc3cc(Oc4cccnn4)cc(F)c3[C@@H]2C)c1F` (single isomer, unassigned) [Compound 56] here?
Its IC50 is 10 to 100 nM.

What about the IC50 (MEK1) of the same compound?
The IC50 was 5 to 50 nM.

And the EC50 (BRAF-MEK1)?
Its EC50 is 200 to 1000 nM.

What does the source list for `O=C1Oc2cc(Oc3ncco3)ccc2C2(CCC2)N1Cc1ccnc(NS(=O)(=O)C2CC2)c1F` [Compound 167, (cyclopropylsulfonyl)[3-fluoro-4-({7-(1,3-oxazol-2-yloxy)-2-oxo-2H,3H-spiro[1,3-benzoxazine-4,1′-cyclobutan]-3-yl}methyl)-2-pyridyl]amine]?
IC50 (NCI-H292 cells): 10 to 100 nM; IC50 (MEK1): 5 to 50 nM; EC50 (BRAF-MEK1): 50 to 200 nM

Which IC50 (NCI-H292 cells) does the source give for `[2H]C1([2H])c2ccc(Oc3cccnn3)cc2OC(=O)N1Cc1cccc(NS(=O)(=O)N(C)C)c1F` [Compound 39, 3-{[3-(dimethylaminosulfonylamino)-2-fluorophenyl]methyl}-7-(3-pyridazinyloxy)(4,4-^2H2)-3,4-dihydro-2H-1,3-benzoxazin-2-one] here?
The IC50 was 1 to 10 nM.

What about the IC50 (MEK1) of the same compound?
The IC50 was 5 to 50 nM.

And the EC50 (BRAF-MEK1)?
Its EC50 is under 50 nM.

For `CNS(=O)(=O)Nc1cccc(CN2C(=O)Oc3cc(Oc4ncco4)ccc3C2(C)C)c1F` [Compound 74, 3-({2-fluoro-3-[(methylsulfamoyl)amino]phenyl}methyl)-4,4-dimethyl-7-(1,3-oxazol-2-yloxy)-3,4-dihydro-2H-1,3-benzoxazin-2-one], which IC50 (NCI-H292 cells) is on record?
The IC50 was 1 to 10 nM.

What about the IC50 (MEK1) of the same compound?
The IC50 was 5 to 50 nM.

With `CNS(=O)(=O)Nc1nccc(CN2C(=O)Oc3cc(Oc4ncco4)cc(F)c3C23CCC3)c1F` [Compound 169, 5-fluoro-3-{[3-fluoro-2-(methylaminosulfonylamino)-4-pyridyl]methyl}-7-(1,3-oxazol-2-yloxy)-2H,3H-spiro[1,3-benzoxazine-4,1′-cyclobutan]-2-one] as the compound, how does the IC50 (NCI-H292 cells) read?
Its IC50 is 1 to 10 nM.

What about the IC50 (MEK1) of the same compound?
The IC50 was 5 to 50 nM.

And the EC50 (BRAF-MEK1)?
Its EC50 is under 50 nM.

Which results are given for `CNS(=O)(=O)Nc1nccc(CN2C(=O)Oc3cc(Oc4nccnn4)c(F)cc3C23CCC3)c1F` [Compound 166, 6-fluoro-3-{[3-fluoro-2-(methylaminosulfonylamino)-4-pyridyl]methyl}-7-(1,2,4-triazin-3-yloxy)-2H,3H-spiro[1,3-benzoxazine-4,1′-cyclobutan]-2-one]?
IC50 (NCI-H292 cells): 1 to 10 nM; IC50 (MEK1): 5 to 50 nM; EC50 (BRAF-MEK1): < 50 nM

What does the source list for `CNS(=O)(=O)Nc1cccc(CN2C(=O)Oc3c(ccc(Oc4ncco4)c3F)[C@@H]2C)c1F` (single isomer, unassigned) [Compound 89, (S)-8-fluoro-3-({2-fluoro-3-(methylsulfamoyl)amino]phenyl}methyl)-4-methyl-7-(1,3-oxazol-2-yloxy)-3,4-dihydro-2H-1,3-benzoxazin-2-one or (R)-8-fluoro-3-({2-fluoro-3-(methylsulfamoyl)amino]phenyl}methyl)-4-methyl-7-(1,3-oxazol-2-yloxy)-3,4-dihydro-2H-1,3-benzoxazin-2-one]?
IC50 (MEK1): < 5 nM; EC50 (BRAF-MEK1): 200 to 1000 nM

How did the IC50 (MEK1) turn out when `CNS(=O)(=O)Nc1nccc(CN2C(=O)Oc3cc(Oc4cccnn4)cnc3C23CC3)c1F` [Compound 202, 2′-{[3-fluoro-2-(methylaminosulfonylamino)-4-pyridyl]methyl}-6′-(3-pyridazinyloxy)-2′H,3′H-4′-oxa-2′,8′-diazaspiro[cyclopropane-1,1′-naphthalen]-3′-one] was run?
The IC50 was under 5 nM.

And the EC50 (BRAF-MEK1)?
The EC50 was under 50 nM.

How did the IC50 (MEK1) turn out when `CN(C)S(=O)(=O)Nc1cccc(CN2C(=O)Oc3cc(Oc4cccnn4)ccc3C2(C)C)c1F` [Compound 34, 3-{[3-(dimethylaminosulfonylamino)-2-fluorophenyl]methyl}-4,4-dimethyl-7-(3-pyridazinyloxy)-3,4-dihydro-2H-1,3-benzoxazin-2-one] was run?
Its IC50 is under 5 nM.

What about the EC50 (BRAF-MEK1) of the same compound?
Its EC50 is 200 to 1000 nM.

For `CNS(=O)(=O)Nc1cc(F)cc(CN2C(=O)Oc3cc(Oc4cccnn4)ccc3C23CCC3)c1F` [Compound 194, 3-{[2,5-difluoro-3-(methylaminosulfonylamino)phenyl]methyl}-7-(3-pyridazinyloxy)-2H,3H-spiro[1,3-benzoxazine-4,1′-cyclobutan]-2-one], which IC50 (MEK1) is on record?
The IC50 was 5 to 50 nM.

And the EC50 (BRAF-MEK1)?
The EC50 was 50 to 200 nM.

How did the IC50 (MEK1) turn out when `CNS(=O)(=O)Nc1nccc(CN2C(=O)Oc3cc(Oc4cccnn4)cnc3[C@H]2C)c1F` (stereo in doubt) [Compound 192, 3-{[3-fluoro-2-(methylaminosulfonylamino)-4 pyridyl]methyl}-4-methyl-7-(3-pyridazinyloxy)-3,4-dihydro-2H-1-oxa-3,5 diazanaphthalen-2-one] was run?
Its IC50 is 5 to 50 nM.

And the EC50 (BRAF-MEK1; 60 min)?
Its EC50 is 200 to 1000 nM.

For `C[C@H]1c2ccc(Oc3cccnn3)c(F)c2OC(=O)N1Cc1cccc(NS(=O)(=O)N(C)C)c1F` (single isomer, unassigned) [Compound 44], which IC50 (MEK1) is on record?
Its IC50 is under 5 nM.

And the EC50 (BRAF-MEK1)?
Its EC50 is 200 to 1000 nM.

What does the source list for `CNS(=O)(=O)Nc1cccc(CN2C(=O)Oc3cc(Oc4ncco4)c(F)cc3C23COC3)c1F` [Compound 73]?
IC50 (NCI-H292 cells): 1 to 10 nM; IC50 (MEK1): 5 to 50 nM

For `CNS(=O)(=O)Nc1cccc(CN2C(=O)Oc3cc(Oc4cccnn4)cnc3C23CC3)c1F` [Compound 201, 2′-{[2-fluoro-3-(methylaminosulfonylamino)phenyl]methyl}-6′-(3-pyridazinyloxy)-2′H,3′H-4′-oxa-2′,8′-diazaspiro[cyclopropane-1,1′-naphthalen]-3′-one], which IC50 (MEK1) is on record?
Its IC50 is under 5 nM.

And the EC50 (BRAF-MEK1)?
The EC50 was under 50 nM.

Which results are given for `COC1CCN(S(=O)(=O)Nc2cccc(CN3Cc4ccc(OC(=O)N(C)C)cc4OC3=O)c2F)C1` (stereo not shown) [Compound 100, 3-(2-fluoro-3-((3-methoxypyrrolidine)-1-sulfonamido)benzyl)-2-oxo-3,4-dihydro-2H-benzo[e][1,3]oxazin-7-yl dimethylcarbamate]?
IC50 (MEK1): 5 to 50 nM; EC50 (BRAF-MEK1): 200 to 1000 nM
